From PubChem BioAssay (NCI)
Where “and” joins values, the source holds several entries; their conditions need not be identical. Identical values can stand only once.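 The compound was tested at five concentrations on cells cultured in 96-well plates, with a 48-hour exposure period. Abbreviation: GI50, concentration required for 50% inhibition of growth. The concentration for full growth arrest is given as TGI.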

Tests used:
Assay in all cases: NCI anticancer screen, dose series, 48 h
COLO 205 colon = tested on: COLO 205 colon
NCI-H23 lung = tested on: NCI-H23 lung
MDA-MB-435 = tested on: MDA-MB-435
UACC-62 melanoma = tested on: UACC-62 melanoma
BT-549 breast = tested on: BT-549 breast
HCT-116 colon = tested on: HCT-116 colon
M14 melanoma = tested on: M14 melanoma
SK-OV-3 ovarian = tested on: SK-OV-3 ovarian
DU-145 prostate = tested on: DU-145 prostate
LOX IMVI melanoma = tested on: LOX IMVI melanoma

Row | Structure (SMILES) | TGI (COLO 205 colon) [µM] | TGI (NCI-H23 lung) [µM] | TGI (MDA-MB-435) [µM] | TGI (UACC-62 melanoma) [µM] | TGI (BT-549 breast) [µM] | TGI (HCT-116 colon) [µM] | TGI (M14 melanoma) [µM] | TGI (SK-OV-3 ovarian) [µM] | TGI (DU-145 prostate) | TGI (LOX IMVI melanoma) [µM] | GI50 (M14 melanoma) [µM] | GI50 (DU-145 prostate) [µM]
1 | C[C@H](CCC1=NCCN1)[C@H]1CC[C@H]2[C@@H]3CC[C@@H]4C[C@H](O)CC[C@]4(C)[C@H]3C[C@H](O)[C@]12C | 23.8 | 27 | 28.9 | 26.3 | 33.1 | > 100 | 35.6 | 31.9 | 28.9 µM | 29.3 |  | 
2 | O=c1[nH]c2ccccc2c2oc(-c3ccccc3)nc12 | 37.6 | > 100 | 38 | > 100 | > 100 | 69.3 | > 100 | > 100 |  | 50.6 |  | 
3 | CN(C)CC(NC(NCS)C(=O)NCCNc1ccc(NCCNC(=O)C(NCS)NC(CN(C)C)OCCl)c2c1C(=O)c1c(O)ccc(O)c1C2=O)OCCl (stereo not given) | 3.28 | 0.111 | 1.45 | 1.6 |  | 1.72 |  | 4.11 | 0.977 µM and 0.287 µM | 1.85 | 0.506 | 0.0162
4 | CS(=O)(=O)O.[Ag] | 4.84 | 46.2 | 9.78 | 31.8 | 38 | 20 | 9.44 | 36.4 | 34.2 µM | 73.9 |  | 
5 | CCS(=O)(=O)c1c2cc(OC)ccc2nc2ccc(OC)cc12 | > 100 | > 100 | > 100 | > 100 |  | > 100 | > 100 | > 100 | > 100 µM | > 100 |  | 
6 | CC(=O)NC1=C(NCc2ccc(Cl)cc2)C(=O)c2ccccc2C1=O | 11.4 | 13.5 |  | 8.61 |  | 9.35 | 13.5 | > 50 |  | 20.9 |  | 
7 | Cc1cc(N=C2C=C(Nc3cc(C)on3)C(=O)c3ccccc32)no1 | > 88.3 | 26 | 22.5 | 38.4 | 74.9 | > 100 | > 100 | > 100 | > 100 µM | > 61.5 |  | 
8 | COc1ccc2c(c1)-c1nn(CCN(C)C)c3ccc(C(=O)NCCCN(C)CCCNC(=O)c4ccc5c6c(nn5CCN(C)C)-c5cc(OC)ccc5Nc46)c(c13)N2 | 0.224 | 0.384 | 0.262 | 0.23 | 0.948 | 1.74 | 1.33 | 3.18 | 0.952 µM | 0.898 |  | 
9 | O=C(O)C1SCCS1 | > 100 | > 100 | > 100 | > 100 | > 100 | > 100 | > 100 | > 100 | > 100 µM | > 100 |  | 
10 | O=C(CCCn1ccnc1[N+](=O)[O-])NCCn1ccnc1[N+](=O)[O-] | > 100 | > 100 | > 100 | > 100 | > 100 | > 100 | > 100 | > 100 | > 100 µM | > 100 |  | 
11 | C#CCOC(=O)C(N)CCCN=C(N)N (stereo not given) | > 100 | > 100 | > 100 |  | > 100 | > 100 | > 100 |  | > 100 µM | > 100 |  | 
12 | CC(C)C1=CC23CCC4C(C)(C(=O)O)CCCC4(C)C2CC1C(C(=O)O)C3C(=O)O (stereo not given) |  | > 100 | > 100 | > 100 | > 100 | > 100 | > 100 |  | > 100 µM | > 100 |  | 
13 | COC1/C=C/C(C)C(C(C)C(OC)C(C)CCC(=O)C(C)C(C/C=C/N(C)C=O)OC)OC(=O)/C=C/C=C(\C)CC(OC)C(OC)C2=CC(=O)O[C@@H](C(C)C(OC)CC(OC)/C=C/C(C)C(O)C1)[C@H]2O (stereo not given in full) |  | 0.373 | 0.977 | 0.314 | 0.544 | 0.207 | 0.309 |  |  | 0.0755 |  | 
14 | Cn1ccc(C(=O)NCCCCCNC(=O)c2ccn(C)c(=O)c2O)c(O)c1=O | > 100 | > 100 | > 100 | > 100 | > 100 | > 100 |  |  | > 100 µM | > 100 |  | 
15 | c1ccc(Nc2nnc(-c3nsc4ccccc34)o2)cc1 | > 100 | > 100 |  | > 100 |  | > 100 | > 100 |  |  | > 100 |  | 
16 | COc1cc(C(SCc2ccccc2)SCc2ccccc2)ccc1O | > 10 |  |  | > 10 |  | > 10 | > 10 | > 10 | > 10 µM | > 10 |  | 
17 | COc1ccc(C(O)/C(=C/n2ccnc2)c2ccccc2)cc1OC (stereo not given) | > 100 | > 100 |  | > 100 |  | > 100 | > 100 | > 100 |  | > 100 |  | 
18 | O=C(c1ccccc1)N1C(=S)N(c2ccc([N+](=O)[O-])cc2)C(=Nc2ccccc2)C1=Nc1ccccc1 | > 100 | > 100 | > 100 | > 100 | > 100 |  | > 100 | > 100 | > 100 µM |  |  | 
19 | OCCO[P+]1(OCCO)n2c3ccc2C(c2ccccc2)=C2C=CC(=N2)C(c2ccccc2)=c2ccc(n21)=C(c1ccccc1)C1=NC(=C3c2ccccc2)C=C1 | 0.0651 | 0.327 | 0.132 |  | 0.305 | 0.203 | 0.278 | 0.569 | 1.74 µM |  |  | 
20 | c1ccc(C2=C(c3ccccc3)P(c3ccccc3)C2)cc1 (stereo not given) | > 100 |  | > 100 |  |  | > 100 | > 100 | > 100 | > 100 µM |  |  | 
21 | CCCCCCCCC/C=C1\CC(CO)(COC(=O)c2ccccc2)OC1=O (stereo not given) | 33 | 41.9 | 36.3 | 79.4 | 52.1 | 52.8 | 36.6 | 43.3 | > 100 µM |  |  | 
22 | O=C(/C=C/c1ccccc1O)/C=C/c1ccccc1O | 3.4 | 3.84 | 4.64 | 3.31 | 3.28 | 1.23 | 3.55 | 4.34 | 3.2 µM |  |  | 
23 | CCCCCCOc1ccc(NC2=C(Cl)C(=O)c3ncccc3C2=O)cc1 |  | 4.34 | 3.27 | 2.75 | 3.56 | 2.38 | 4.04 | > 10 | 2.83 µM | 4.15 |  | 
